Laboratory results from ChEMBL document CHEMBL5370659 (J Med Chem, 2023).
Activity calls are given as the source filed them. No cut-off for these calls is given here.

Assays:
[1] = Drug uptake in CD-1 (ICR) mouse brain at 50 mg/kg measured 2 hrs by LC-MS/MS analysis; assay type: ADME, organism-based; conditions: read-out: Drug uptake
Mus musculus = test: Effect on C57BL/6N mouse assessed as brain serotonin turnover measuring 5-HT/TRP ratio at 1.5 to 50 mg/kg, po bid treated for 6 to 7 days; assay type: functional, organism-based; conditions: dose 1.5-50 mg/kg, time 6-7 day
[2] = molecular target: Large neutral amino acids transporter small subunit 1 (Homo sapiens, UniProt Q01650); test: Inhibition of human LAT1 transfected in MDCK-II cells co-transfected with 4F2HC or GFP using [3H]-leucine as probe substrate at 20 uM incubated for 10 mins by scintillation counting analysis; assay type: cell-based
Sequence of Large neutral amino acids transporter small subunit 1 (Q01650 whole entry): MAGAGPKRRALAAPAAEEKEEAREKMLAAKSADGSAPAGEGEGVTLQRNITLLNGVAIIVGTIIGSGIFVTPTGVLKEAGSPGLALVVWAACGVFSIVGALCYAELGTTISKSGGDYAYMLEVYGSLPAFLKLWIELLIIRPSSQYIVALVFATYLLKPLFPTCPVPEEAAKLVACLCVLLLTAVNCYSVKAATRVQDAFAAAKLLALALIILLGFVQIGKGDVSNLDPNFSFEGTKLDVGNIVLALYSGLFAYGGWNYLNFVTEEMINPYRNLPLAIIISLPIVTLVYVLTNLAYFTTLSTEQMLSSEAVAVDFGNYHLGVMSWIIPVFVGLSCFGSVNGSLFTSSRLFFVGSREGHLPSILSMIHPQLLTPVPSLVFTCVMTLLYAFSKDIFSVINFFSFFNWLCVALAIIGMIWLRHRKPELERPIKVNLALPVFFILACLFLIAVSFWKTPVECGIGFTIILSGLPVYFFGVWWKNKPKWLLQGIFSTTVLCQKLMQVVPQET

[3] = Metabolic stability in rat hepatocytes assessed as intrinsic clearance; assay type: ADME, cell-based, Hepatocyte; conditions: read-out: CLH
[4] = Plasma concentration in CD-1 (ICR) mouse at 50 mg/kg measured 0.5 hrs by LC-MS/MS analysis; assay type: ADME, organism-based
[5] = Plasma concentration in Sprague-Dawley rat at 50 mg/kg, po measured at 0.5 hrs by LC-MS/MS analysis; assay type: ADME, organism-based
[6] = Drug uptake in Sprague-Dawley rat brain at 50 mg/kg, po measured at 2 hrs by LC-MS/MS analysis; assay type: ADME, organism-based; conditions: read-out: Drug uptake
[7] = Metabolic stability in rat hepatocytes assessed as half life; assay type: ADME, cell-based, Hepatocyte
[8] = MRT (0 to last) in CD-1 (ICR) mouse at 50 mg/kg, po measured upto 1440 mins by LC-MS/MS analysis; assay type: ADME, organism-based; conditions: in vivo
[9] = Mutagenicity in Salmonella typhimurium TA98 in presence or absence of rat liver S9 fraction by Ames test; assay type: toxicity; conditions: salmonella enterica subsp. enterica serovar typhimurium
[10] = Brain homogenate binding in rat; assay type: ADME, tissue-based
Cytochrome P450 1A2 = molecular target: T1, Cytochrome P450 1A2 (Homo sapiens, UniProt P05177); test: Inhibition of CYP1A2 in human liver microsome using phenacetin as substrate measured upto 50 uM incubated for 10 mins followed by NADPH addition incubated for 10 mins by LC/MS/MS analysis; assay type: ADME; conditions: microsomes, 20 min
T1 sequence (P05177 whole entry): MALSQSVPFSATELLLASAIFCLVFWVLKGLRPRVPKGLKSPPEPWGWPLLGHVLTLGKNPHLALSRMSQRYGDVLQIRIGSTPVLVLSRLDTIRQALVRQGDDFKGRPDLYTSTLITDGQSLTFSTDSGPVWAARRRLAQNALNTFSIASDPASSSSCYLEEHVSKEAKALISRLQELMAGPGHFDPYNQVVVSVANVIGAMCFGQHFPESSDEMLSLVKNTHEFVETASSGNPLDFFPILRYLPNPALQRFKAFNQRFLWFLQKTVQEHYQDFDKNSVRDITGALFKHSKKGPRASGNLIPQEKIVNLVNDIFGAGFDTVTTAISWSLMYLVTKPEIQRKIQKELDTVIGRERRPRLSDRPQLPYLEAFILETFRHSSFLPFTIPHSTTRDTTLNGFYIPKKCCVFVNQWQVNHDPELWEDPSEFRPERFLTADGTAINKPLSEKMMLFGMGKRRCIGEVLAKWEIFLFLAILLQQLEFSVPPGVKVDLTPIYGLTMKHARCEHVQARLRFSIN

[11] = Mutagenicity in Salmonella typhimurium TA100 in presence or absence of rat liver S9 fraction by Ames test; assay type: toxicity; conditions: salmonella enterica subsp. enterica serovar typhimurium
[12] = Cmax in CD-1 (ICR) mouse at 50 mg/kg, po measured upto 1440 mins by LC-MS/MS analysis; assay type: ADME, organism-based; set-up: dose 50 mg/kg, time < 1440 min, route po; conditions: in vivo
[13] = MRT (0 to last) in Sprague-Dawley rat at 20 mg/kg, po measured upto 1440 mins by LC-MS/MS analysis; assay type: ADME, organism-based; conditions: in vivo
[14] = AUMCExtra in CD-1 (ICR) mouse at 50 mg/kg, po measured upto 1440 mins by LC-MS/MS analysis; assay type: ADME, organism-based; conditions: in vivo, 24 h
[15] = Initial drug concentration in Sprague-Dawley rat at 10 mg/kg, iv measured upto 1440 mins by LC-MS/MS analysis; assay type: ADME, organism-based; conditions: in vivo
[16] = AUC (0 to infinitive) in CD-1 (ICR) mouse at 50 mg/kg, po measured upto 1440 mins by LC-MS/MS analysis; assay type: ADME, organism-based; set-up: time < 1440 min, dose 50 mg/kg, route po; conditions: in vivo
[17] = Tmax in Sprague-Dawley rat at 50 mg/kg, po measured upto 1440 mins by LC-MS/MS analysis; assay type: ADME, organism-based; conditions: in vivo
[18] = Tlast in Sprague-Dawley rat at 50 mg/kg, po measured upto 1440 mins by LC-MS/MS analysis; assay type: ADME, organism-based; conditions: in vivo, 24 h
[19] = AUC (0 to last) in CD-1 (ICR) mouse at 50 mg/kg, po measured upto 1440 mins by LC-MS/MS analysis; assay type: ADME, organism-based; set-up: time < 1440 min, dose 50 mg/kg, route po; conditions: in vivo
[20] = AUC (0 to last) in Sprague-Dawley rat at 10 mg/kg, iv measured upto 1440 mins by LC-MS/MS analysis; assay type: ADME, organism-based; set-up: time < 1440 min, dose 10 mg/kg, route iv; conditions: in vivo
[21] = Brain homogenate binding in mouse; assay type: ADME, tissue-based
[22] = AUCExtra in Sprague-Dawley rat at 50 mg/kg, po measured upto 1440 mins by LC-MS/MS analysis; assay type: ADME, organism-based; conditions: in vivo, 24 h
MC-38 = test: Antitumor activity against mouse MC-38 cells subcutaneously transplanted in C57BL/6N mouse assessed as reduction in absolute tumor volume at 50 mg/kg, po bid measured on day 13 relative to control; assay type: functional; conditions: MC-38, 312 h, route sc, time 13 day
[23] = Drug uptake in CD-1 (ICR) mouse lung at 50 mg/kg measured 2 hrs by LC-MS/MS analysis; assay type: ADME, organism-based; conditions: read-out: Drug uptake
[24] = AUMCExtra in Sprague-Dawley rat at 20 mg/kg, po measured upto 1440 mins by LC-MS/MS analysis; assay type: ADME, organism-based; conditions: in vivo, 24 h
[25] = molecular target: T2, Tryptophan 5-hydroxylase 1 (Homo sapiens) (UniProt P17752); test: Binding affinity to […] (unknown origin) assessed as dissociation rate constant by surface plasmon resonance analysis
T2 sequence (whole entry): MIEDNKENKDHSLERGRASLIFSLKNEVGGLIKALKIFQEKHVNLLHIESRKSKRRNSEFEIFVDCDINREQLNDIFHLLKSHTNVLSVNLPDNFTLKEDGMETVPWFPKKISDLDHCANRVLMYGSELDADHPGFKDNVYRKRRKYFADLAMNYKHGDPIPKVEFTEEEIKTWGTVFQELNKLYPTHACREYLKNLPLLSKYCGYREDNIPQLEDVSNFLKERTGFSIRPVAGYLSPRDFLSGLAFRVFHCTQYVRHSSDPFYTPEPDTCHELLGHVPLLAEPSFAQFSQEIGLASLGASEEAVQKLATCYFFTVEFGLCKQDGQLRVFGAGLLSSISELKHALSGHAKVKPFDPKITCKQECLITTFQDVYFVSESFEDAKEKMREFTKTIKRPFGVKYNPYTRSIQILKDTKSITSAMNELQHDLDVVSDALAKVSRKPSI

[26] = Drug uptake in Sprague-Dawley rat brain at 20 mg/kg, po measured at 0.5 hrs by LC-MS/MS analysis; assay type: ADME, organism-based; conditions: in vivo, BLD = below limit of detection
[27] = Oral bioavailability in Sprague-Dawley rat at 50 mg/kg measured upto 1440 mins by LC-MS/MS analysis; assay type: ADME, organism-based; conditions: in vivo

**Q.** For `CCn1c(=O)[nH]c(=O)c2c1nc(Cc1cn3cc(C)sc3n1)n2CC1COC1`, which concentration at 2 h [1] is on record?
**A.** Its concentration at 2 h is 46 ng/g.

**Q.** What about the Activity (Mus musculus) of the same compound?
**A.** Its Activity is “inactive”.

**Q.** What about the “inhibition (INH)” value [2] of the same compound?
**A.** The value was “Not Active”.

**Q.** What about the CLint scaled [3] of the same compound?
**A.** The CLint scaled was < 17 mL/min/kg.

**Q.** What about the concentration at 0.5 h [4] of the same compound?
**A.** Its concentration at 0.5 h is 7390 ng/mL.

**Q.** And the concentration at 0.5 h [5]?
**A.** Its concentration at 0.5 h is 5950 ng/mL.

**Q.** And the concentration at 2 h [6]?
**A.** The concentration at 2 h was 18 ng/g.

**Q.** What about the half-life [7] of the same compound?
**A.** Its half-life is > 2.42 h.

**Q.** And the MRT last at 24 h [8]?
**A.** Its MRT last at 24 h is 1.58 h.

**Q.** And the Activity [9]?
**A.** The Activity was “Non-Toxic”.

**Q.** And the Activity [10]?
**A.** The Activity was 70%.

**Q.** What about the “inhibition (INH)” value (Cytochrome P450 1A2) of the same compound?
**A.** The value was “Not Active”.

**Q.** And the Activity [11]?
**A.** The Activity was “Non-Toxic”.

**Q.** What about the Cmax [12] of the same compound?
**A.** The Cmax was 6950 ng/mL.

**Q.** What about the MRT last at 24 h [13] of the same compound?
**A.** Its MRT last at 24 h is 2.91 h.

**Q.** And the AUMC [14]?
**A.** Its AUMC is 4.85%.

**Q.** What about the C0 at 24 h [15] of the same compound?
**A.** Its C0 at 24 h is 16300 ng/mL.

**Q.** What about the AUC(0-inf) [16] of the same compound?
**A.** Its AUC(0-inf) is 8580 ng·h/mL.

**Q.** What about the Tmax [17] of the same compound?
**A.** Its Tmax is 0.83 h.

**Q.** What about the Tlast [18] of the same compound?
**A.** The Tlast was 24 h.

**Q.** What about the AUC(0-t) at 24 h [19] of the same compound?
**A.** Its AUC(0-t) at 24 h is 8540 ng·h/mL.

**Q.** And the AUC(0-t) at 24 h [20]?
**A.** Its AUC(0-t) at 24 h is 5000 ng·h/mL.

**Q.** What about the Activity [21] of the same compound?
**A.** The Activity was 72%.

**Q.** What about the “%AUCextra” value [22] of the same compound?
**A.** The value was 0.44%.

**Q.** What about the inhibition in vivo at 50 mg/kg (MC-38) of the same compound?
**A.** Its inhibition in vivo at 50 mg/kg is 50%.

**Q.** And the concentration at 2 h [23]?
**A.** The concentration at 2 h was 168 ng/g.

**Q.** And the AUMC [24]?
**A.** The AUMC was 8.44%.

**Q.** What about the Kdiss [25] of the same compound?
**A.** The Kdiss was 0.007 s⁻¹.

**Q.** And the Drug uptake [26]?
**A.** Its Drug uptake is “Bld”.

**Q.** What about the bioavailability [27] of the same compound?
**A.** The bioavailability was 32.7%.
